In patent US20240174693A1, “SOMATOSTATIN RECEPTOR SUBTYPE 4 (SSTR4) AGONISTS AND THEIR APPLICATIONS” (Humanwell Pharmaceutical US, priority 2022, published 2024):

Legend:
[1] = Plasma protein binding by dialysis; assay type: in vitro ADME; conditions: rat plasma; for Protein Binding Fu(%) / fraction unbound at 5 h, 1 μM: 1 μM, 5 hours dialysis at 37° C.; for fraction unbound at 5 h, 1 μM: read-out: Protein Binding Fraction unbound (fu) (converted)
Method: The following solutions were prepared: Solution A (0.5 mM) 10 μL of 10 mM stock solution was added into 190 μL of DMSO and Solution B (0.02 mM): 8 μL of Solution A was added into 192 μL of 0.05 M sodium phosphate buffer. The final DMSO concentration in Solution B is 4%.
A 96-well plate was preloaded with 380 μL aliquots of plasma in the wells designated for plasma and buffer, respectively. 20 μL of Solution B (0.02 mM of test and reference compounds) was spiked into the pre-loaded plasma in the 96-well plate. The final test concentration was 1 μM containing 0.2% DMSO.
Aliquots of 100 μL of blank dialysis buffer were applied to the receiver side of dialysis chambers. Next aliquots of 100 μL of the plasma spiked with test and reference compounds were applied to the donor side of the dialysis chambers. Blank buffer was added to the receiver first and the buffer and plasma chambers were clearly marked to avoid cross contamination.
Aliquots of 25 μL of plasma spiked with test and reference compounds were placed in 96-well sample preparation plates as t=0 min plasma samples. The aliquots were mixed with the same volume of blank buffer (50:50, v/v). The samples were quenched with 200 μL of acetonitrile containing internal standard (IS). The dialysis block was covered with a plastic lid and the entire apparatus was placed on a shaker (60 rpm) for 5 hours at 37° C.
25 μL aliquot from both the donor sides and receiver sides of the dialysis apparatus were placed into new sample preparation plates and mixed with the same valune of opposite matrixes (blank buffer to plasma and vice versa). The sample was quenched with 200 μL acetonitrile containing internal standard. All the samples from 0 hour to 5 hours were vortexed at 600 rpm for 10 minutes followed by centrifugation at 5594 g for 15 minutes (Thermo Multifuge×3R). 50 μL of the supernatant was transferred to a new 96-well plate and the sample was mized with 50 μL of Mili-Q water. The sample plate was covered and stored in a −20° C. freezer. The samples were subsequently analyzed by LC/MS/MS.

in vitro = conditions: rat, hepatocytes
Method: Vials with hepatocytes were removed from a liquid nitrogen storage unit and immediately placed in a 37±1° C. shaking water bath for 2 min±15 sec. The hepatocytes were poured into 50 mL of hepatocytes thawing medium, mixed gently, and centrifuged at 500 rpm for 3 minutes. After centrifugation, the supernatant was carefully aspirated without disturbing the pellet. 10× the volume of pre-warmed KHB buffer (Krebs-Henseleit buffer, Sigma Cat #K3753-10X1L) with 5.6 g/L HEPES was used to resuspend the cell pellet. The pellet mixture was centrifuged at 500 rpm for 3 minutes, aspirated, and the supernatant discarded without disturbing the cell pellet. The cell viability and yield were determined. The hepatocytes were counted, and the cell suspensions were diluted to the appropriate cell density. The viable cell density was 2×10^6 cells/mL. The hepatocyte solution was placed on ice until it was used.
Two dosing solutions of prewarmed KHB (1% DMSO) were prepared. 200 μM spiking solution was prepared by adding 20 μL of substrates stock solution (10 mM) into 980 μL of DMSO. Two dosing solutions were prepared by adding 10 μL of 200 μM spiking solution into 990 μL of KHB (2 μM after dilution). The dosing solution was centrifuged at 5594 g for 15 min (Thermo Multifuge×3R). 50 μL of pre-warmed 2×dosing solution was added to the wells designated for the different time points. […] After the addition of the hepatocytes, the timer was started. The assay was placed in an incubator at 37° C. 100 μL of ACN containing IS was added to the wells designed for 0 min, the wells were mixed gently, then 50 μL of pre-warmed hepatocytes solution (2×10^6 cells/mL) was added. The wells were sealed. […] Next, the wells were sealed. After quenching, the plates were shaken on a vibrator (IKA, MTS 2/4) for 10 min at 600 rpm. The plate was sonicated for 2 min and centrifuged at 5594 g for 15 min (Thermo Multifuge×3R). 50 μL of the supernatant was transferred from each well into a 96-well sample plate containing 50 μL of ultra pure water (Millipore, ZMQS50F01) for LC/MS analysis.

CYP3A4 = biological target: T1, CYP3A4 (Homo sapiens, UniProt P08684); experiment: CYP inhibition in HLM, CYP3A4; assay type: in vitro ADME; conditions: read-out: CYP inhibition (IC50 um) 3A
T1 construct: from tissue; host or cells: liver microsomes (HLM)
Method: 0.1 M potassium phosphate buffer (K-buffer), pH 7.4 was preheated. K-buffer was prepared by mixing 9.5 mL Stock A into 40.5 mL Stock B. The total volume was brought to 500 mL with Milli-Q water. The buffer was titrated with KOH or H3PO4 to pH 7.4. Stock A (1 M monobasic potassium phosphate) was prepared by adding 136.5 g of monobasic potassium phosphate into 1 L of Milli-Q water. Stock B (1 M dibasic potassium phosphate) was prepared by adding 174.2 g of dibasic potassium phosphate in 1 L of Milli-Q water.
Serial dilution for test compound and reference inhibitors (400×) was prepared in a 96-well plate. 8 μL of 10 mM test compounds was transferred to 12 μL of ACN. Inhibitor spiking solution was prepared for CYP1A2, CYP2C9 and CYP2D6 in cocktail by adding 12 μL of 1 mM α-Naphthoflavon, 10 μL of 40 mM Sulfaphenazole, 10 μL of 10 mM Quinidine, and 8 μL of DMSO. Individual inhibitor spiking solution for CYP3A4 and CYP2C19 was prepared by adding 8 μL of DMSO stock to 12 μL of ACN. 1:3 serial dilutions were performed in DMSO:ACN mixture (v/v: 40:60).
NADPH cofactor was prepared by dissolving 66.7 mg NADPH in 10 mL 0.1 M K-buffer, pH7.4. 4×substrate (2 mL for each isoform) was prepared. HLM was added were required on ice. 0.2 mg/mL HLM solution was prepared using 10 μL of 20 mg/mL to 990 μL of 0.1 M K-buffer on ice. 400 μL of 0.2 mg/mL HLM were added to the assay wells and then 2 μL of 400×test compound set were added into the designated wells on ice. 200 μL of 0.2 mg/mL HLM was added to the assay wells and followed by 1 μL of serially diluted reference inhibtor solution into the designated wells on ice. The following solutions were added in duplicated in a 96-well plate on ice: 30 μL of 2×test compound and reference compound in 0.2 mg/mL HLM solution and 15 μL of 4×substrate solution. The 96-well assay plate and NADPH solution were pre-incubated at 37° C. for 5 minutes. 15 μL of pre-warmed 8 mM NADPH solution was added to into the assay plates to initiate the reaction. The assay plate was incubated at 37° C. 5 mins, 10 mins, and 45 mins. […]

RBC partitioning study = assay type: in vitro ADME; conditions: rat
Method: 0.05 M sodium phosphate buffer, pH 7.4 was prepared using the following steps. Stock A, stock B, and stock C solutions were prepared by adding 156 g of monobasic sodium phosphate in 1 L of Milli-Q water (1.0 M), 142 g of dibasic sodium phosphate in 1 L of Milli-Q water (1.0 M), and 58.5 g of sodium chloride in 1 L of Milli-Q water (1.0 M) respectively. 20.25 mL of Stock B and 4.75 mL of Stock A were added to 35 mL of Stock C and the total volume was brought to near 500 mL with Milli-Q water. The resulting buffer solution was titrated with NaOH or H3PO4 to pH 7.4 and the total volume was brought to 500 mL. The 0.05 M sodium phosphate buffer was preheated at 37° C.
Fresh blank plasma preparation and hematocrit determination. A tube containing whole blood was centrifuged at 4000 rpm for 10 minuts. The plasma was harvested was stored. Hematocrit (the volume of red blood cells to the total volume of whole blood) was determined using the formula:
Hematocrit=Vred cells/Vblood=(Vblood−Vplasma)/Vblood
Vblood: the volume of whole blood applied
Vplasma: the volume of plasma measured after centrifugation
Preparation of reference and test compound spiking solutions in plasma. 1.25 mM spiking solution A was prepared by adding add 10 μL of 10 mM reference into 70 μL of plasma (8-fold dilution).
Preparation of reference and test compound in whole blood and plasma. For whole blood samples, 12 μL of spiking solution B (prepared above) was added to 288 μL of whole blood (25-fold dilution). For plasma samples, 6 μL of spiking solution B was added to 144 μL of plasma (25-fold dilution). The assay procedure used is as follows. The assay plate was placed in an incubator at 37° C. for 60 minutess. 300 μL of compound spiking solution in whole blood from above was removed and centrifuged at 4000 rpm for 10 minutes. Subsequently plasma was harvested. 50 μL of plasma sample was removed and 150 μL of acetonitrile (containing IS) was added and vortexed for 5 min. The sample was centrifuged at 6000 rpm for 15 minutes. The supernatant was removed and analyzed by LC/MS.

T1 sequence (P08684 whole entry): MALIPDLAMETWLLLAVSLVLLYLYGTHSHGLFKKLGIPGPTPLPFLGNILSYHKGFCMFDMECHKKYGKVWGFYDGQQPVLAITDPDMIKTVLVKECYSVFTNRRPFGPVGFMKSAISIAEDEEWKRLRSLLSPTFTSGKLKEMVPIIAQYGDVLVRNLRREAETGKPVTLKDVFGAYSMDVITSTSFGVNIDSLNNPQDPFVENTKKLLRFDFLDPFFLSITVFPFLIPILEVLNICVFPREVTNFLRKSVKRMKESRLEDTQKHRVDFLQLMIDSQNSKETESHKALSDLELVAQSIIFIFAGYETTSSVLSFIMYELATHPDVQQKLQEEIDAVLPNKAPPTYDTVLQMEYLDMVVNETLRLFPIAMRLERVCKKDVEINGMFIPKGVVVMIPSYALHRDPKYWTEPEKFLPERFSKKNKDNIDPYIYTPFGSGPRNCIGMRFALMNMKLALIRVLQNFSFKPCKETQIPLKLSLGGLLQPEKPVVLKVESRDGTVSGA

SMILES	Protein Binding Category [1]	recovery at 5 h, 1 µM [1]	Protein Binding Fu(%) [1]	fraction unbound at 5 h, 1 μM [1]	CLint scaled at 1 μM (in vitro)	half-life at 1 μM (in vitro)	IC50 (CYP3A4)	RBC Partitioning Study KRBC/PL (RBC partitioning study)	RBC Partitioning Study KBlood/PL (RBC partitioning study)
CC(C)(NC(=O)[C@H]1[C@@H]2CNC[C@H]1C2)c1ncc2c(Cl)cccn12 [Compound 7, (1R,5S,6r)-N-(2-(8-chloroimidazo[1,5-a]pyridin-3-yl)propan-2-yl)-3-azabicyclo[3.1.1]heptane-6-carboxamide]	Moderate	96.6%	37.8%	0.378	5.4 mL/min/kg	10 h	> 10 µM	1.15	–
CC(C)(NC(=O)[C@H]1[C@@H]2CNC[C@H]1C2)c1ncc2c(Br)cccn12 [Compound 8, (1R,5S,6r)-N-(2-(8-bromoimidazo[1,5-a]pyridin-3-yl)propan-2-yl)-3-azabicyclo[3.1.1]heptane-6-carboxamide]	Moderate	103%	28.16%	0.282	6.01 mL/min/kg	9 h	> 10 µM	0.94	–
CC(C)(NC(=O)[C@H]1[C@@H]2CNC[C@H]1C2)c1nc(C2CC2)c2ccccn12 [Compound 9, (1R,5S,6r)-N-(2-(1-cyclopropylimidazo[1,5-a]pyridin-3-yl)propan-2-yl)-3-azabicyclo[3.1.1]heptane-6-carboxamide]	Moderate	68.2%	40.9%	0.409	–	–	> 10 µM	1.09	1.05
